Legend:
[1] = system: nerve cells C and nerve cells D (differentiated from human induced iPS cells); experiment: Drug efficacy screening (Hoechst 33342 / PI / Calcein AM staining, fluorescence microscope cell counting) in cell contained container 2; format: cell-based; details: for Living cells / Dead cells: next day after addition
Method: The amount of the drug solution used was from 50 μL through 5,000 μL.
On the next day after the drug solution was added, the culture medium in each concave of the cell contained container was removed, and the concaves were washed with Hank's balanced salt solution (HBSS, available from Thermo Fisher Scientific Inc.) (200 microliters) at room temperature. After washing, HOECHST 33342 (available from Thermo Fisher Scientific Inc.), PI (Propidium Iodide, available from Cosmo Bio Co., Ltd.), and CALSEIN AM (available from Takara Bio Inc.) were each diluted 1,000-fold with HBSS, to prepare a stain mixture liquid, and the prepared stain mixture liquid was added in an amount of 200 microliters each. The cell contained container was then left to stand still in a 5% CO2 incubator for 20 minutes.
A fluorescence microscope image of the cell stained container after staining was completed was captured with a fluorescence microscope. The obtained fluorescence microscope image was processed with image processing software IMAGE J, to calculate the number of cells and the number of dead cells.

[2] = system: nerve cells C and nerve cells D; format: cell-based, human; details: 100, 160, 220 micromoles; 20 hours; FIG. 23
Method: N9 culture media (available from Elixirgen Scientific, LLC) to which zinc chloride as a test substance at four concentration conditions of 0 micromoles, 100 micromoles, 160 micromoles, and 220 micromoles was added respectively were added in the evaluation container of Production example 2 in an amount of 100 microliters with a micropipette, and the container was left to stand still overnight (for 20 hours) in a CO2 incubator at 37 degrees C.
Next, in order to evaluate the influence of zinc chloride on the cell survival rate, a WST-1 reagent (product name: PREMIX WST-1 CELL PROLIFERATION ASSAY SYSTEM, available from Takara Bio Inc.) was added in an amount of 10 microliters per well (concave), and left to stand still for 1 hour in an CO2 incubator at 37 degrees C. to be allowed to undergo reaction. Subsequently, absorbances at 450 nm, and as a reference value, at 570 nm were measured with a plate reader (instrument name: CYTATION 5, available from Bio Tek Instruments Inc.), to evaluate “cell survival rate”. The results are plotted in FIG. 23.

[3] = system: nerve cells C and nerve cells D; format: cell-based, human; details: 100, 160, 220 micromoles; 20 hours; FIG. 24
Method: In the same manner as in the evaluation of the cell survival rate, the N9 culture medium to which zinc chloride was added as described above was added, and the container was left to stand still overnight (for 20 hours) in a CO2 incubator at 37 degrees C.
In order to evaluate the influence of zinc chloride on cell membrane damage, only the culture medium was recovered with a micropipette and put in a 96-well cell contained container, a LDH assay reagent (product name: CYTOTOXICITY DETECTION KIT, available from Roche) was further added to each, and the resultant was allowed to undergo reaction at room temperature (23 degrees C.) for 5 minutes. Subsequently, absorbances at 492 nm, and as a reference value, at 620 nm were measured with a plate reader, to evaluate “cell membrane damage rate”. The results are plotted in FIG. 24.

[4] = system: IL-8 production of nerve cells C and nerve cells D; experiment: Cytotoxicity evaluation: inflammatory substance production (IL-8 ELISA); format: cell-based, human; details: 100, 160, 220 micromoles; 20 hours; FIG. 25
Method: In the same manner as in the evaluation of the cell survival rate, a N9 culture medium (available from Elixirgen Scientific, LLC) to which zinc chloride was added was added, and the container was left to stand still overnight (for 20 hours) in a CO2 incubator at 37 degrees C.
In order to evaluate the influence of zinc chloride on inflammatory substance production, only the culture medium was recovered with a micropipette. IL-8 production was measured by ELISA method using a protein measurement kit (product name: HUMAN IL-8 ELISA READY-SET-GO! (registered trademark), available from Affymetrix), and absorbances at 450 nm, and as a reference value, at 570 nm were measured with a plate reader. The results are plotted in FIG. 25.

[5] = drug concentration 0.1 micromoles
[6] = drug concentration 0.3 micromoles
[7] = drug concentration 1.0 micromoles
[8] = drug concentration 3.0 micromoles
[9] = drug concentration 10 micromoles

Row | SMILES | Drug efficacy rate (living cells/dead cells) [1, 5] [%] | Living cells [1, 5] [cell] | Drug efficacy rate (living cells/dead cells) [1, 6] [%] | Dead cells [1, 6] [cell] | Living cells [1, 6] [cell] | Drug efficacy rate (living cells/dead cells) [1, 7] [%] | Living cells [1, 7] [cell] | Drug efficacy rate (living cells/dead cells) [1, 8] [%] | Dead cells [1, 8] [cell] | Living cells [1, 8] [cell] | Drug efficacy rate (living cells/dead cells) [1, 9] [%] | Dead cells [1, 9] [cell] | Living cells [1, 9] [cell] | cell survival rate, nerve cells C compared with nerve cells D [2] | cell membrane damage rate, nerve cells C compared with nerve cells D [3] | inflammatory substance production (IL-8), nerve cells C compared with nerve cells D [4]
1 | CN[C@@H]1C[C@H]2O[C@@](C)([C@@H]1OC)n1c3ccccc3c3c4c(c5c6ccccc6n2c5c31)C(=O)NC4 [STAUROSPORINE] | 70 | 271 | 57 | 202 | 270 | 54 | 268 | 42 | 270 | 197 | 2 | 474 | 11 |  |  | 
2 | [Cl-].[Cl-].[Zn+2] [zinc chloride] |  |  |  |  |  |  |  |  |  |  |  |  |  | almost the same toxic response tendency | almost the same toxic response tendency | almost the same toxic response tendency

Source: patent US20190381500A1, “CELL CONTAINED CONTAINER AND CELL CONTAINED CONTAINER PRODUCING METHOD, AND CELL CHIP” (priority 2018, published 2019)
